In patent US10030025B2, “Substituted [1,2,4]triazolo[4,3-a]pyrazines as selective NK-3 receptor antagonists” (EUROSCREEN SA, priority 2013, dated 2018):

Key:
[1] = tested on: circulating levels of luteinizing hormone (LH); experiment: Castrated male rat model, circulating luteinizing hormone (LH); assay type: in vivo; conditions: castrated male SD rats, single oral dose less than or equal to 30 mg/kg, p<0.05
Experimental: Castrated male rat model to assess the effect of compound of invention on circulating levels of luteinizing hormone (LH)
The effect of compounds of the invention to inhibit luteinizing hormone (LH) secretion is determined by the following biological studies.
In humans and rodents, castration is well-precedented to permit heightened, persistent GnRH signaling and consequent elevation of circulating LH. Thus, a castrated rat model is used to provide a broad index for measurement of LH inhibition as a marker of test compound inhibition of the GnRH signaling pathway.
Castrated adult male Sprague-Dawley (SD) rats (150-175 g) were purchased from Janvier (St Berthevin, France). All animals were housed 2 per cage in a temperature-controlled room (22±2° C.) and 50±5% relative humidity with a 12 hour/12 hour light/dark cycles (lights off at 6h00 pm). The animals were allowed 3 weeks of postoperative recovery prior to study. Animals were handled on a daily basis. Standard diet and tap water were provided ad libitum. Animal cage litters were changed once a week. On the study day, animals were acclimated to the procedure room for a period of one hour prior to the initiation of the experiment.
Compounds of the invention were formulated in 0.5% methyl cellulose.
After basal sampling (T0) a single dose of compounds of the invention or vehicle was administrated orally to rats. Blood samples were then collected at several time points post dosing (45, 90, 150, 300 and 420 minutes). Blood samples were obtained via tail vein bleed, drawn into EDTA-containing tubes and centrifuged immediately. Plasma samples were collected and stored in a −80° C. freezer until assayed. Serum LH levels were determined using radioimmunoassay kit from RIAZEN—Rat LH, Zentech (Liège, Belgium). Baseline was defined as the initial basal blood sample.

[2] = tested on: plasma testosterone; experiment: Plasma testosterone in gonad intact male rats; assay type: in vivo, rat; conditions: gonad intact male SD rats, 3 mg/kg single oral administration, vs vehicle, over the test period
Experimental: The study was designed to evaluate the effect of compounds of the invention on testosterone circulating levels following oral administration at 3 mg/kg on SD gonad intact male rats.
Two groups of non-fasted rats (male, Sprague-Dawley, 200 to 225 g; n=4 rats/group) with jugular vein cannulation, were dosed via a single oral administration of compounds of the invention at 3 mg/kg. The control group was dosed with the vehicle. Compounds of the invention were prepared in a dose formulation of pyrogen-free water with 0.5% methylcellulose. Blood samples were collected via the catheter implanted in the jugular vein at pre-determined intervals using EDTA-3K as anti-coagulant. Samples were chilled and rapidly processed by centrifugation to obtain corresponding plasma samples. Testosterone hormone levels were determined by RIA performed on plasma samples collected for all the groups at 5 minutes before administration (basal time), and at 45, 90, 150, 300, 480 minutes and 24 hours after dosing.

[3] = tested on: plasma estradiol levels; experiment: Estradiol circulating level in female rats; assay type: in vivo, rat; conditions: adult female rats, 10 mg/kg b.i.d. oral, 10 days, two consecutive estrous cycles
Experimental: The aim of this study was to evaluate the effect of compounds of the invention on plasma estradiol levels following oral administration at 10 mg/kg (b.i.d.) for a period of 10 days in female rats.
Two groups of adult, female rats (Sprague-Dawley, ˜320 g) were treated in-phase with their individual estrous cycles. Thus, treatment was started in the proestrus phase (coincident with peak estradiol levels, as shown on Day 1 in FIG. 3) and rats were dosed twice daily (˜9h30 and 17h30) by oral administration either with a compound of the invention at 10 mg/kg or with the vehicle for the control group. Compounds of the invention were prepared in a dose formulation of pyrogen-free water with 0.5% methylcellulose. Estradiol levels were determined for all groups by ELISA performed on plasma samples derived from blood collections taken at 30 minutes before the daily, 9h30 test article administration on all days presented in FIG. 3.

[4] = tested on: body temperature; experiment: Thermoregulation in ovariectomized (OVX) ewes; assay type: in vivo, ewe; conditions: 1 mg/kg intravenous bolus
Text: After 4 months recovery, animals were acclimatised to housing in single pens for a period of 7 days with ad libitum access to water and […] lucerne hay. One day prior to experimentation, the animals received a jugular vein cannula ([…], Tuta Laboratories, Lane Cove, Australia). The cannulae were kept patent with heparinised saline. On the day of the experiment, compound no 5 of the present invention was formulated in physiological saline with 9% 2-hydroxypropyl-β-cyclodextrin at a concentration of 2 mg/mL. Compound no 5 (1 mg/kg, N=5) or vehicle (N=5) was administered at 11h00 by intravenous bolus injection at a dose volume of 0.5 mL/kg through the jugular cannula and the injected material was flushed into the animal with 5 mL of heparinised saline. Animals were fed at 12h00. Rectal temperatures were monitored with a probe at hourly intervals throughout the experiment, starting at 7h40 and concluding at 15h40. […] However, this pyrogenic response to feeding in ovarectomized ewes was not observed in any animals treated with compound no 5. […] Graphical data presented as mean±SEM for vehicle-treated versus compound no 5-treated ewes (N=5/group). Statistical analyses performed by 2-way ANOVA followed by Sidak's Multiple Comparisons Test between treatment groups at the indicated time interval, *p<0.05.

SMILES | Effect on circulating LH levels [1] | also measured
Cc1nsc(-c2nnc3n2CCN(C(=O)c2ccc(Cl)c(F)c2)[C@@H]3C)n1 [Compound 4, (R)-(4-chloro-3-fluorophenyl)(8-methyl-3-(3-methyl-1,2,4-thiadiazol-5-yl)-5,6-dihydro-[1,2,4]triazolo[4,3-a]pyrazin-7(8H)-yl)methanone] | significantly suppressed circulating LH levels | –
Cc1nsc(-c2nnc3n2CCN(C(=O)c2ccccc2)[C@@H]3C)n1 [Compound 20, (R)-(8-methyl-3-(3-methyl-1,2,4-thiadiazol-5-yl)-5,6-dihydro-[1,2,4]triazolo[4,3-a]pyrazin-7(8H)-yl)(phenyl)methanone] | significantly suppressed circulating LH levels | –
CCc1noc(-c2nnc3n2CCN(C(=O)c2ccc(-c4cccs4)cc2)[C@@H]3C)n1 [Compound 30, (R)-(3-(3-ethyl-1,2,4-oxadiazol-5-yl)-8-methyl-5,6-dihydro-[1,2,4]triazolo[4,3-a]pyrazin-7(8H)-yl)(4-(thiophen-2-yl)phenyl)methanone] | significantly suppressed circulating LH levels | –
CCc1nsc(-c2nnc3n2CCN(C(=O)c2ccc(F)cc2)[C@@H]3C)n1 [Compound 2, (R)-(3-(3-ethyl-1,2,4-thiadiazol-5-yl)-8-methyl-5,6-dihydro-[1,2,4]triazolo[4,3-a]pyrazin-7(8H)-yl)(4-fluorophenyl)methanone] | significantly suppressed circulating LH levels | –
CCc1noc(-c2nnc3n2CCN(C(=O)c2ccc(F)cc2)[C@@H]3C)n1 [Compound 13, (R)-(3-(3-ethyl-1,2,4-oxadiazol-5-yl)-8-methyl-5,6-dihydro-[1,2,4]triazolo[4,3-a]pyrazin-7(8H)-yl)(4-fluorophenyl)methanone] | significantly suppressed circulating LH levels | –
Cc1nsc(-c2nnc3n2CCN(C(=O)c2ccc(F)c(F)c2F)[C@@H]3C)n1 [Compound 8, (R)-(8-methyl-3-(3-methyl-1,2,4-thiadiazol-5-yl)-5,6-dihydro-[1,2,4]triazolo[4,3-a]pyrazin-7(8H)-yl)(2,3,4-trifluorophenyl)methanone] | significantly suppressed circulating LH levels | –
Cc1nsc(-c2nnc3n2CCN(C(=O)c2ccc(F)c(F)c2)[C@@H]3C)n1 [Compound 9, (R)-(3,4-difluorophenyl)(8-methyl-3-(3-methyl-1,2,4-thiadiazol-5-yl)-5,6-dihydro-[1,2,4]triazolo[4,3-a]pyrazin-7(8H)-yl)methanone] | significantly suppressed circulating LH levels | –
Cc1nsc(-c2nnc3n2CCN(C(=O)c2ccc(Cl)c(Cl)c2)[C@@H]3C)n1 [Compound 1, (R)-(3,4-dichlorophenyl)(8-methyl-3-(3-methyl-1,2,4-thiadiazol-5-yl)-5,6-dihydro-[1,2,4]triazolo[4,3-a]pyrazin-7(8H)-yl)methanone] | significantly suppressed circulating LH levels | –
Cc1nsc(-c2nnc3n2CCN(C(=O)c2ccc(F)cc2)[C@@H]3C)n1 [Compound 5, (R)-(4-fluorophenyl)(8-methyl-3-(3-methyl-1,2,4-thiadiazol-5-yl)-5,6-dihydro-[1,2,4]triazolo[4,3-a]pyrazin-7(8H)-yl)methanone] | significantly suppressed circulating LH levels | Effect on plasma testosterone level [2]: significantly suppressed plasma testosterone level; Effect on estradiol levels [3]: significantly decreased estradiol levels; Pyrogenic response to feeding [4]: not observed
